# According to the supplement of paper PMC10307832:
# Compound: COC1=CC=C(C=C1)COC2=C(C=C(C=C2)CC3=CN=C(N=C3N)N)OC [GW-2580] + CC1(C)CCC(c2ccc(Cl)cc2)=C(CN2CCN(c3ccc(C(=O)NS(=O)(=O)c4ccc(N[C@H](CCN5CCOCC5)CSc5ccccc5)c(S(=O)(=O)C(F)(F)F)c4)cc3)CC2)C1 [Navitoclax] (partner 0.5 µM)
# Assay: relative viability (nuclei count vs DMSO), 5 days (fraction); higher = more cells survive
# Conditions: first compound 0.08 µM
# Outline: (§1)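 Relative viability is defined as nuclei in treated wells over nuclei in vehicle wells. Duplicate plates were run and medians reported. Lung cancer cell lines in 1536-well plates were dosed by pin tool one day after seeding, with one drug or with a fixed anchor-drug dose plus five library-drug doses (not always all listed) in √10 steps, and nuclei were counted after 5 days.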
row,Cell Line,relative viability
1,COR-L 105,0.813
2,LOU-NH91,0.683
3,NCI-H2170,0.5
4,NCI-H2405,0.888
5,HOP-62,1.15
6,LU99A,0.887
7,BEN,0.0663
8,HARA,1.15
9,HCC-78,0.879
10,NCI-H322M,1.07
11,LCLC-97TM1,0.443
12,NCI-H2009,1.25
13,A-427,1.02
14,NCI-H441,1.03
15,NCI-H1734,1.04
16,NCI-H460,1.46

row,Cell Line,relative viability
1,NCI-H2347,0.899
2,SK-LU-1,0.869
3,NCI-H1395,1.08
4,201T,1.24
5,NCI-H1915,0.858
6,HCC-827,1.06
7,LXF-289,1.02
8,NCI-H23,0.77
9,NCI-H647,1.09
10,NCI-H1651,1.04
11,EPLC-272H,1.18
12,NCI-H1355,0.984
13,NCI-H3122,1.04
14,NCI-H1437,1.16
15,NCI-H1755,1.04

# Same assay, conditions: first compound 0.8 µM
row,Cell Line,relative viability
1,COR-L 105,0.814
2,LOU-NH91,0.731
3,NCI-H2170,0.68
4,NCI-H2405,0.742
5,HOP-62,1.05
6,LU99A,0.97
7,BEN,0.486
8,HARA,1.18
9,HCC-78,1.07
10,NCI-H322M,1.31
11,NCI-H2009,1.22
12,A-427,1.1
13,NCI-H441,0.33
14,NCI-H1734,0.935
15,NCI-H460,1.37
16,NCI-H2347,0.777
17,SK-LU-1,0.85
18,NCI-H1395,1.06
19,201T,1.25
20,NCI-H1915,0.898
21,HCC-827,0.952
22,LXF-289,0.963
23,NCI-H23,0.75
24,NCI-H647,1.19
25,NCI-H1651,1.15
26,EPLC-272H,1.08
27,NCI-H1355,1.08
28,NCI-H3122,1.06
29,NCI-H1437,1.15
30,NCI-H1755,1.04

# Same assay, conditions: first compound 2.53 µM
row,Cell Line,relative viability
1,COR-L 105,0.72
2,LOU-NH91,0.618
3,NCI-H2170,0.467
4,NCI-H2405,0.928
5,HOP-62,0.984
6,LU99A,0.681
7,BEN,0.0634
8,HARA,1.28
9,HCC-78,0.631
10,NCI-H322M,1.11
11,LCLC-97TM1,0.369
12,NCI-H2009,1.15
13,A-427,0.838
14,NCI-H441,0.575
15,NCI-H1734,0.857
16,NCI-H460,0.941

row,Cell Line,relative viability
1,NCI-H2347,0.708
2,SK-LU-1,1.06
3,NCI-H1395,1.13
4,201T,1.23
5,NCI-H1915,0.778
6,HCC-827,0.898
7,LXF-289,0.948
8,NCI-H23,0.774
9,NCI-H647,1.18
10,NCI-H1651,0.95
11,EPLC-272H,1.11
12,NCI-H1355,0.827
13,NCI-H3122,1.13
14,NCI-H1437,0.928
15,NCI-H1755,0.894

# Same assay, conditions: first compound 8 µM
row,Cell Line,relative viability
1,COR-L 105,0.751
2,LOU-NH91,0.752
3,NCI-H2170,0.657
4,NCI-H2405,0.66
5,HOP-62,1.26
6,LU99A,0.729
7,BEN,0.0526
8,HARA,0.896
9,HCC-78,0.801
10,NCI-H322M,1.22
11,LCLC-97TM1,0.321
12,NCI-H2009,1.02
13,A-427,0.856
14,NCI-H441,0.515
15,NCI-H1734,0.76
16,NCI-H460,1.15

row,Cell Line,relative viability
1,NCI-H2347,0.804
2,SK-LU-1,1.05
3,NCI-H1395,1.11
4,201T,1.2
5,NCI-H1915,0.837
6,HCC-827,0.92
7,LXF-289,0.821
8,NCI-H23,0.87
9,NCI-H647,1.3
10,NCI-H1651,1.18
11,EPLC-272H,1.11
12,NCI-H1355,0.944
13,NCI-H3122,0.892
14,NCI-H1437,0.879
15,NCI-H1755,0.831

# Compound: Cc1cnc(Nc2ccc(OCCN3CCCC3)cc2)nc1Nc1cccc(S(=O)(=O)NC(C)(C)C)c1 [Fedratinib] + CC1(C)CCC(c2ccc(Cl)cc2)=C(CN2CCN(c3ccc(C(=O)NS(=O)(=O)c4ccc(N[C@H](CCN5CCOCC5)CSc5ccccc5)c(S(=O)(=O)C(F)(F)F)c4)cc3)CC2)C1 [Navitoclax] (partner 0.5 µM)
# Assay: as above
# Conditions: first compound 0.1 µM
# Outline: as §1
row,Cell Line,relative viability
1,COR-L 105,0.568
2,LOU-NH91,0.588
3,NCI-H2170,0.626
4,NCI-H2405,0.583
5,HOP-62,1.03
6,LU99A,0.824
7,BEN,0.0815
8,HARA,1.17
9,HCC-78,0.676
10,NCI-H322M,1.16
11,LCLC-97TM1,0.275
12,NCI-H2009,1.13
13,A-427,0.973
14,NCI-H441,0.534
15,NCI-H1734,0.852
16,NCI-H460,1.05
17,NCI-H2347,0.675
18,NCI-H1395,1.3
19,201T,1.16
20,NCI-H1915,0.747
21,HCC-827,0.949
22,LXF-289,0.925
23,NCI-H23,0.87
24,NCI-H647,1.14
25,NCI-H1651,0.914
26,EPLC-272H,1.14
27,NCI-H1355,0.796
28,NCI-H3122,1.01
29,NCI-H1437,1.14
30,NCI-H1755,1

# Same assay, conditions: first compound 0.3162 µM
row,Cell Line,relative viability
1,COR-L 105,0.657
2,LOU-NH91,0.786
3,NCI-H2170,0.653
4,NCI-H2405,0.895
5,HOP-62,1.01
6,LU99A,0.834
7,BEN,0.055
8,HARA,1.12
9,NCI-H322M,1.18
10,LCLC-97TM1,0.394
11,NCI-H2009,1.19
12,A-427,0.905
13,NCI-H441,0.341
14,NCI-H1734,0.865
15,NCI-H460,1.03
16,NCI-H2347,0.823
17,SK-LU-1,0.917
18,NCI-H1395,1.13
19,201T,1.18
20,NCI-H1915,0.726
21,HCC-827,1.01
22,LXF-289,0.875
23,NCI-H23,0.75
24,NCI-H647,1.2
25,NCI-H1651,0.958
26,EPLC-272H,0.936
27,NCI-H1355,0.973
28,NCI-H3122,0.964
29,NCI-H1437,1.02
30,NCI-H1755,0.972

# Same assay, conditions: first compound 1 µM
row,Cell Line,relative viability
1,COR-L 105,0.689
2,LOU-NH91,0.575
3,NCI-H2170,0.429
4,NCI-H2405,0.506
5,HOP-62,1.07
6,LU99A,0.666
7,BEN,0.0392
8,HARA,1.15
9,HCC-78,0.834
10,NCI-H322M,1.23
11,LCLC-97TM1,0.412
12,NCI-H2009,1.1
13,A-427,0.933
14,NCI-H441,0.574
15,NCI-H1734,0.828
16,NCI-H460,0.969

row,Cell Line,relative viability
1,NCI-H2347,0.733
2,SK-LU-1,0.611
3,NCI-H1395,0.962
4,201T,1.21
5,NCI-H1915,0.761
6,HCC-827,1.06
7,LXF-289,0.939
8,NCI-H23,0.73
9,NCI-H647,0.97
10,NCI-H1651,1.07
11,EPLC-272H,1.09
12,NCI-H1355,0.949
13,NCI-H3122,1.01
14,NCI-H1437,0.988
15,NCI-H1755,0.894

# Compound: Cc1cnc(Nc2ccc(OCCN3CCCC3)cc2)nc1Nc1cccc(S(=O)(=O)NC(C)(C)C)c1 [Fedratinib] + COc1cc2c(Oc3ccc(NC(=O)C4(C(=O)Nc5ccc(F)cc5)CC4)cc3F)ccnc2cc1OCCCN1CCOCC1 [Foretinib] (partner 0.25 µM)
# Assay: as above
# Conditions: first compound 0.1 µM
# Outline: as §1
row,Cell Line,relative viability
1,COR-L 105,0.866
2,LOU-NH91,0.917
3,NCI-H2170,1.02
4,NCI-H2405,1.03
5,HOP-62,1.1
6,LU99A,0.717
7,BEN,0.685
8,HARA,0.948
9,HCC-78,0.504
10,NCI-H322M,0.946
11,LCLC-97TM1,1.03
12,NCI-H2009,1.12
13,A-427,1.04
14,NCI-H441,1.12
15,NCI-H1734,0.665
16,NCI-H460,0.793

row,Cell Line,relative viability
1,NCI-H2347,0.869
2,SK-LU-1,0.819
3,NCI-H1395,0.926
4,201T,1.1
5,NCI-H1915,1.09
6,HCC-827,1.03
7,LXF-289,0.963
8,NCI-H23,0.945
9,NCI-H647,1.16
10,NCI-H1651,0.813
11,EPLC-272H,0.558
12,NCI-H1355,1.06
13,NCI-H3122,0.956
14,NCI-H1437,1.25
15,NCI-H1755,0.937

# Same assay, conditions: first compound 0.3162 µM
row,Cell Line,relative viability
1,COR-L 105,1.03
2,LOU-NH91,0.956
3,NCI-H2170,0.996
4,NCI-H2405,1.02
5,HOP-62,0.982
6,LU99A,0.858
7,BEN,0.683
8,HARA,0.493
9,HCC-78,0.548
10,NCI-H322M,0.95
11,LCLC-97TM1,0.913
12,NCI-H2009,1.23
13,A-427,1
14,NCI-H441,0.907
15,NCI-H1734,0.921
16,NCI-H460,1.05

row,Cell Line,relative viability
1,NCI-H2347,0.853
2,SK-LU-1,0.78
3,NCI-H1395,0.956
4,201T,1.08
5,NCI-H1915,1.08
6,HCC-827,1.07
7,LXF-289,0.958
8,NCI-H23,0.767
9,NCI-H647,1.23
10,NCI-H1651,0.73
11,EPLC-272H,0.684
12,NCI-H1355,0.973
13,NCI-H3122,0.9
14,NCI-H1437,1.25
15,NCI-H1755,0.977

# Same assay, conditions: first compound 1 µM
row,Cell Line,relative viability
1,COR-L 105,0.676
2,LOU-NH91,0.875
3,NCI-H2170,1.02
4,NCI-H2405,1.01
5,HOP-62,0.959
6,LU99A,0.644
7,BEN,0.472
8,HARA,0.782
9,HCC-78,0.509
10,NCI-H322M,0.596
11,LCLC-97TM1,0.935
12,NCI-H2009,1.1
13,A-427,1.05
14,NCI-H441,0.868
15,NCI-H1734,0.786
16,NCI-H460,0.997
